This passage reports IC50 results from patent US11292801B2, “Calpain modulators and therapeutic uses thereof” (Blade Therapeutics, Inc., priority 2016, dated 2022).

The structures appear in SMILES notation.

The target of assay [1] is T1, Human Calpain 2/NS1 (Homo sapiens, UniProt P17655).
T1 sequence (P17655 1-700): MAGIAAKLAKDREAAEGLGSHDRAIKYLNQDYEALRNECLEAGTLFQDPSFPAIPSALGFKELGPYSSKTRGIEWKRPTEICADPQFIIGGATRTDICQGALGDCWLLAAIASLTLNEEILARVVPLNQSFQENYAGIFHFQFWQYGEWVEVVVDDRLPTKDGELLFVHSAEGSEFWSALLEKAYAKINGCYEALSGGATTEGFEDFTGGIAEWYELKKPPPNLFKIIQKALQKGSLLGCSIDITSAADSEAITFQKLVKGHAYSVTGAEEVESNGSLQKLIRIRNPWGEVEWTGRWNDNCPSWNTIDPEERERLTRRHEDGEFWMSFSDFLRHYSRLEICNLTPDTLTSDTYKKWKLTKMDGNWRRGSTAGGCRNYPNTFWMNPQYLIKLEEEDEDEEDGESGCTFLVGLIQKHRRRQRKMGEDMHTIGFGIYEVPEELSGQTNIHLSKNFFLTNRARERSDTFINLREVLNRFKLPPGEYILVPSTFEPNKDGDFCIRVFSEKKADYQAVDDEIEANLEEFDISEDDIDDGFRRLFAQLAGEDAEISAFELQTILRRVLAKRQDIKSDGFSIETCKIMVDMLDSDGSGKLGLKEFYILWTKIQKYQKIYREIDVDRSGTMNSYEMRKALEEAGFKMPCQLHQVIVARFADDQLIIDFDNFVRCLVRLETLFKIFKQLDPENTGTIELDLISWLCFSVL
T1 sequence (P04632 1-268 partner): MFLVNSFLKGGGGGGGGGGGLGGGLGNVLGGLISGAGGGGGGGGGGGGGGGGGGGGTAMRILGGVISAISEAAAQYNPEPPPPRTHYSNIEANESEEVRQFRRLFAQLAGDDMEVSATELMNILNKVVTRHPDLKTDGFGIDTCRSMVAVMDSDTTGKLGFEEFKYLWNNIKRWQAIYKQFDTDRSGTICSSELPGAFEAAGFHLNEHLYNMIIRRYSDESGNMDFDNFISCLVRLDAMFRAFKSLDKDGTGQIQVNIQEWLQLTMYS
Description: Biochemical inhibition of calpain 2, continuous fluorescence (FRET substrate) assay. The conditions noted are these: mean, read-out: Human Calpain 2/NS1 IC50 (nM)_MEAN. How it is done:
(§1) Calpain 1, 2, and 9 activity and inhibition thereof are assessed by means of a continuous fluorescence assay. The SensoLyte 520 Calpain substrate (Anaspec Inc) is optimized for detecting calpain activity. This substrate contains a novel internally quenched 5-FAM/QXL™ 520 FRET pair. Calpains 1, 2, and 9 cleave the FRET substrate into two separate fragments resulting in an increase of 5-FAM fluorescence that is proportional to calpain activity.
(§2) Assays are typically setup in black 384-well plates using automated liquid handling as follows. Calpain assay base buffer typically contains 50 mM Tris, pH˜7.5, 100 mM NaCl and 1 mM DTT. Inhibitors are serially diluted in DMSO and used to setup 2× mixtures with calpains in the aforementioned buffer. After incubation at ambient temperature (25C), the reaction is initiated by adding a 2× mix of the fluorescent peptide substrate and CaCl2) (required for in-situ calpain activation) in the same buffer. Reaction progress curve data are typically collected for 10 min using excitation/emission wavelengths of 490 nm/520 nm on SpectraMax i3× or the FLIPR-Tetra plate readers (Molecular Devices Inc). Reaction rates were calculated from progress curve slopes typically over 1-5 min. Dose response curves (rate vs. log inhibitor concentration) were typically fit to a 4-parameter logistic function to extract IC50 values.

Assay [2] addresses T2, Human Calpain 1/NS1 (Homo sapiens, UniProt P07384).
T2 sequence (P07384 1-714): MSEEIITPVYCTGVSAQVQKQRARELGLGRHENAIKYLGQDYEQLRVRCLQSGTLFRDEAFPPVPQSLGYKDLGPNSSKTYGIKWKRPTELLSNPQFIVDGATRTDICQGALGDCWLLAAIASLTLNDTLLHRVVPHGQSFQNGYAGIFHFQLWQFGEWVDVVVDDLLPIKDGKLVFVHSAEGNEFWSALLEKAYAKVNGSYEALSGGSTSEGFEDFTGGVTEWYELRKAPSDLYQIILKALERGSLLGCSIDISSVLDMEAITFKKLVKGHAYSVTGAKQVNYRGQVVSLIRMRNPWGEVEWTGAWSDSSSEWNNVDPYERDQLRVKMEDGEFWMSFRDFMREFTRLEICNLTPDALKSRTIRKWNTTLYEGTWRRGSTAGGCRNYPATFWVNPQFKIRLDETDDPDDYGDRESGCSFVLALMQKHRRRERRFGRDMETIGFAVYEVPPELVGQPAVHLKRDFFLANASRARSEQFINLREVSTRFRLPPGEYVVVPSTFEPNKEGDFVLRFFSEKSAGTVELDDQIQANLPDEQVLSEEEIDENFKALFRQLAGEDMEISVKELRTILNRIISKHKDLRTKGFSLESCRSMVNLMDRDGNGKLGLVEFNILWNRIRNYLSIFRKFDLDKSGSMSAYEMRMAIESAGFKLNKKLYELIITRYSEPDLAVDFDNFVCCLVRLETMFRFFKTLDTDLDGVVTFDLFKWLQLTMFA
T2 sequence (P04632 1-268 partner): T1 sequence (P04632 1-268 partner)
In words: Biochemical inhibition of calpain 1, continuous fluorescence (FRET substrate) assay. The conditions noted are these: mean, read-out: Human Calpain 1/NS1 IC50 (nM)_MEAN. How it is done:
as §1, §2

For assay [3], the target named is T3, Human Calpain 9/NS1 (Homo sapiens, UniProt O14815).
T3 sequence (O14815 1-690): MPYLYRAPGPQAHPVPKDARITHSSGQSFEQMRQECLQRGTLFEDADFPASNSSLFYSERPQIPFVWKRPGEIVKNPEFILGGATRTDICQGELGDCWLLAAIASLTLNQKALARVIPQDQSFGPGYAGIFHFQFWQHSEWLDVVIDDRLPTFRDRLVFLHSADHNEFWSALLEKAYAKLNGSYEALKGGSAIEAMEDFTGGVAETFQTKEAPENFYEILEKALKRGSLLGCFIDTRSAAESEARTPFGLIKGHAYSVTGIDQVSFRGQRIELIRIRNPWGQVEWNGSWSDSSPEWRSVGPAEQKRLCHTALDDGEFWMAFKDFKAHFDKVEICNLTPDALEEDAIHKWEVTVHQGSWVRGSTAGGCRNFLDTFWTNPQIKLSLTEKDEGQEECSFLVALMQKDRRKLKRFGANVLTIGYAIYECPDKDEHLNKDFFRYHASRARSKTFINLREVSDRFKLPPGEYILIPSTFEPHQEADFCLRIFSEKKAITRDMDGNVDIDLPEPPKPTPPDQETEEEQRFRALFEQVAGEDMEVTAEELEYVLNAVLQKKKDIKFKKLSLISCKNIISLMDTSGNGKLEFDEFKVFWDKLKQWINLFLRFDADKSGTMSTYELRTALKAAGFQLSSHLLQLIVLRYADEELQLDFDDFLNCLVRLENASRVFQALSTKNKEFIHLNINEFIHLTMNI
T3 sequence (P04632 1-268 partner): T1 sequence (P04632 1-268 partner)
In words: Biochemical inhibition of calpain 9, continuous fluorescence (FRET substrate) assay. The conditions noted are these: mean, read-out: Human Calpain 9/NS1 IC50 (nM)_MEAN. As for the experimental part:
as §1, §2

Consider `O=C(NCc1ccc2c(c1)OCO2)C(=O)C1CCCCOCCOCc2ccccc2C(=O)N1` (stereo not drawn) [Compound 81, N-(benzo[d][1,3]dioxol-5-ylmethyl)-2-oxo-2-(12-oxo-1,3,4,6,7,8,9,10,11,12-decahydrobenzo[f][1,4]dioxa[9]azacyclotetradecin-10-yl)acetamide], for which the results for the IC50 in assay [1], in assay [2] and in assay [3] were 3000 to 10000 nM, > 10000 nM and < 3000 nM, respectively.

As to `CCNC(=O)C(=O)[C@@H]1C/C=C/CCCCCCc2ccccc2C(=O)N1` [Compound 17, (S,E)-N-ethyl-2-oxo-2-(1-oxo-1,2,3,4,7,8,9,10,11,12-decahydrobenzo[c][1]azacyclotetradecin-3-yl)acetamide], the IC50 in assay [1], in assay [2] and in assay [3] was > 10000 nM throughout.

For the compound `O=C[C@@H]1CCCCCOc2ccnc(n2)-c2ccccc2C(=O)N1` [Compound 139, (S)-3-oxo-11-oxa-4-aza-1(2,4)-pyrimidina-2(1,2)-benzena-cycloundecaphane-5-carbaldehyde], the IC50 in assay [1], in assay [2] and in assay [3] was < 3000 nM each time.

For the compound `O=C(NC1CC1)C(=O)C1CCCCOCCOCc2ccccc2C(=O)N1` (stereo not drawn) [Compound 114, N-cyclopropyl-2-oxo-2-(12-oxo-1,3,4,6,7,8,9,10,11,12-decahydrobenzo[f][1,4]dioxa[9]azacyclotetradecin-10-yl)acetamide], the IC50 in assay [1], in assay [2] and in assay [3] was > 10000 nM throughout.

Consider `COc1ccc(CNC(=O)C(=O)C2CCCCOCCOCc3ccccc3C(=O)N2)c(OC)c1` (stereo not drawn) [Compound 99, N-(2,4-dimethoxybenzyl)-2-oxo-2-(12-oxo-1,3,4,6,7,8,9,10,11,12-decahydrobenzo[f][1,4]dioxa[9]azacyclotetradecin-10-yl)acetamide], for which the IC50 is 3000 to 10000 nM in assay [1], > 10000 nM in assay [2] and 3000 to 10000 nM in assay [3].

In the case of `CCCCNC(=O)C(=O)[C@@H]1C/C=C\COCCOCc2ccccc2C(=O)N1` [Compound 59, (S,Z)—N-butyl-2-oxo-2-(12-oxo-1,3,4,6,9,10,11,12-octahydrobenzo[f][1,4]dioxa[9]azacyclotetradecin-10-yl)acetamide], the IC50 in assay [1] is > 10000 nM; in assay [2], > 10000 nM; in assay [3] it was < 3000 nM.

As to `O=C[C@@H]1CC=CCOCCCOCc2ccccc2C(=O)N1` [Compound 11, (S)-13-Oxo-1,4,5,7,10,11,12,13-octahydro-3h-benzo[g][1,5]dioxa[10]aza-cyclopentadecine-11-carbaldehyde], the IC50 was < 3000 nM in assay [1], 3000 to 10000 nM in assay [2] and < 3000 nM in assay [3].

Regarding `C[C@@H](NC(=O)C(=O)C1CCCCOCCOCc2ccccc2C(=O)N1)c1cccnc1` (stereo partly drawn) [Compound 127, 2-Oxo-2-(12-oxo-1,3,4,6,7,8,9,10,11,12-decahydrobenzo[f][1,4]dioxa[9]aza-cyclotetradecin-10-yl)-N—((R)-1-(pyridin-3-yl)ethyl)acetamide], the IC50 in assay [1], in assay [2] and in assay [3] was > 10000 nM in each case.

In the case of `O=C[C@@H]1Cc2cccc(c2)CCCOCc2ccccc2C(=O)N1` [Compound 32, (S)-2-Oxo-10-oxa-3-aza-1(1,2),6(1,3)-dibenzena-cycloundecaphane-4-carbaldehyde], the IC50 in assay [1], in assay [2] and in assay [3] was < 3000 nM throughout.

Take `CN(C)CCNC(=O)C(=O)C1CCCCOCCOCc2ccccc2C(=O)N1` (stereo not drawn) [Compound 110, N-(2-(dimethylamino)ethyl)-2-oxo-2-(12-oxo-1,3,4,6,7,8,9,10,11,12-decahydrobenzo[f][1,4]dioxa[9]azacyclotetradecin-10-yl)acetamide]: the IC50 in assay [1] was > 10000 nM; in assay [2], > 10000 nM; in assay [3] it was 3000 to 10000 nM.

With `O=C(NCCc1cccc(Cl)c1)C(=O)C1CCCCOCCOCc2ccccc2C(=O)N1` (stereo not drawn) [Compound 89, N-(3-chlorophenethyl)-2-oxo-2-(12-oxo-1,3,4,6,7,8,9,10,11,12-decahydrobenzo[f][1,4]dioxa[9]azacyclotetradecin-10-yl)acetamide], the figures for the IC50 in assay [1], in assay [2] and in assay [3] were > 10000 nM, > 10000 nM and < 3000 nM, respectively.

On to `O=C[C@@H]1CCCCCCCOc2ccccc2C(=O)N1` [Compound 6, (S)-11-Oxo-2,3,4,5,6,7,8,9,10,11-decahydrobenzo[b][1]oxa[5]azacyclotridecine-9-carbaldehyde], for which the IC50 was < 3000 nM in assay [1], 3000 to 10000 nM in assay [2] and < 3000 nM in assay [3].

In the case of `Cc1cccc(Cl)c1CNC(=O)C(=O)C1CCCCOCCOCc2ccccc2C(=O)N1` (stereo not drawn) [Compound 86, N-(2-chloro-6-methylbenzyl)-2-oxo-2-(12-oxo-1,3,4,6,7,8,9,10,11,12-decahydrobenzo[f][1,4]dioxa[9]azacyclotetradecin-10-yl)acetamide], the IC50 in assay [1], in assay [2] and in assay [3] was > 10000 nM throughout.

Regarding `O=C[C@@H]1CCCCCOc2cccc(c2)-c2ncccc2C(=O)N1` [Compound 38, (S)-11-Oxo-3-oxa-10-aza-1(2,3)-pyridina-2(1,3)-benzenacycloundecaphane-9-carbaldehyde], the IC50 in assay [1], in assay [2] and in assay [3] was < 3000 nM in each case.
